“Also recorded” adds a separate entry of the source.
Columns and labels:
[1] = test system: HSV-2 GFP+ (bHSV2-BAC38-S1); test: HSV-2 GFP+ infection of MRC5 cells, live-cell fluorescence imaging; format: cell-based; settings: for inhibition of fluorescent HSV-2 GFP+ infected cells: 24 hours post infection, 125 μM (FIG. 5A)
Description: FIG. 5A. Fluorescent images of MRC5 cells infected with HSV-2 GFP+(bHSV2-BAC38-S1). Images taken at 0 and 24 hours post infection using an Incucyte S3 Live-Cell Analysis System. Acyclovir at a matched concentration (125 μM) was used as a positive control. FIG. 5B. Live cell imaging analysis of triplicate wells infected with HSV-2 GFP+. Wells were treated with either Vehicle (0.1% DMSO), Acyclovir 125 μM, or JR002 125 μM. Images were collected at 2 hour intervals for 48 hours post infection. Relative fluorescent intensity (RFI) calculated as the percent increase in fluorescence intensity relative to time 0 post infection. Bars represent the standard error of the mean.
JR002 is the selenoglycoside homolog of TE3048, the thioglycoside for which data for inhibition of HSV-1 was shown above. In FIG. 5A., the lower right quadrant represents high level cell damage, fluorescent HSV-2 GFP+ infected cells 24 hours post infection (24HPI), vehicle only.

[2] = test system: SARS-CoV-2 (USA_WA1/2020); settings: highest non-toxic dose; Vero E6, 72 hr
Description: In this assay, viral infection and replication leads to a loss of host cell viability, which is indirectly measured by an endpoint assessment of host cell viability after 72 hr. The CPE reduction assay indirectly monitors the ability of compounds to inhibit viral replication and infection through various molecular mechanisms, including direct inhibition of viral entry or enzymatic processes as well as acting on host pathways that modulate viral replication. Compounds with antiviral activity protect the host cells from the CPE of the virus, increasing viability.
Protocol: Vero E6 cells were premixed with SARS-CoV-2 for 5-10 min, dispensed into assay ready plates (pre-dispensed with compounds and controls). Cells and virus were incubated with compounds for 72 hr, then viability was assayed by Vero E6 host cell ATP content. 60 nL/well of compounds in DMSO was spotted into 384-well assay plates (Greiner, black clear bottom, tissue culture treated plates, #781091) by acoustic dispensing. In addition, 60 nL of the positive control Calpain inhibitor IV (stock concentration 2 mg/mL). 5 μL/well of media was dispensed into assay plates (MEM, 1% Pen/Strep/GlutaMax, 1% HEPES, 2% HI FBS). […] Luminescence signal was read on Perkin Elmer Envision or BMG CLARIOstar plate reader.

HSV-1 = format: cell-based, Herpes simplex 1; settings: Vero cells, 4 hour treatment, low multiplicity HSV-1
SARS-CoV-2 spike protein = settings: previously demonstrated; blocks N-glycan processing at the oligomannose stage; cited from earlier work

## CC(=O)NC1C(OC(C)=O)[C@H](OC(C)=O)C(COC(C)=O)O[C@H]1[Se]C/C=C(\C)CCC=C(C)C (stereo partly drawn) [JR002, Geranyl 2-acetamido-2-deoxy-3,4,6-tri-O-acetyl-1-seleno-3-D-glucopyranoside]
[1]; 125 μM, imaging for 48 hours post infection
  inhibition of HSV-2 replication / infectivity: potent inhibition of infectivity; also recorded: significantly inhibits
[1]
  inhibition of fluorescent HSV-2 GFP+ infected cells: almost complete inhibition

## CC(=O)N[C@@H]1[C@@H](OC(C)=O)[C@H](OC(C)=O)[C@@H](COC(C)=O)O[C@H]1SC/C=C(\C)CCC=C(C)C [TE3048, N,O-tetra-acetyl-GlcNAc-ß-S-geranyl]
[2]
  inhibition of SARS-CoV-2: 60-70%

## CC(=O)N[C@@H]1[C@@H](O)[C@H](O)[C@@H](CO)O[C@H]1SC/C=C(\C)CCC=C(C)C [TE3054, GlcNAc-ß-S-geranyl]
HSV-1
  inhibition of HSV-1 infectivity / plaque formation: inhibitory

## Nc1nc2c(ncn2COCCO)c(=O)[nH]1 [Acyclovir, reference compound]
[1]
  inhibition of fluorescent HSV-2 GFP+ infected cells: almost complete inhibition

## O=C1N[C@@H]2[C@@H](O)[C@@H](O)[C@H](O)[C@@H](CO)N2C1=O [kifunensine]
SARS-CoV-2 spike protein
  inhibition of N-glycan maturation and infectivity: Inhibition of N-glycan maturation and infectivity
